Assay results: the kinase profiling compilation of Christmann-Franck et al. (2016)
Where “and” joins values, the source holds several entries; their conditions need not be identical. Equal values may be shown once.

Key:
Assay in all cases: KINOMEscan competition binding
Settings in all cases: compound 10.0 µM
MAPK7 (human) = MAPK7 (human) (UniProt Q13164)
PTK6 (human) = PTK6 (human) (UniProt Q13882)
MARK4 (human) = MARK4 (human) (UniProt Q96L34)
NEK1 (human) = NEK1 (human) (UniProt Q96PY6)
PDGFRA (human) = PDGFRA (human) (UniProt P16234)
CIT (human) = CIT (human) (UniProt O14578)
MAPK14 (human) = MAPK14 (human) (UniProt Q16539)
MAP3K9 (human) = MAP3K9 (human) (UniProt P80192)
CHEK1 (human) = CHEK1 (human) (UniProt O14757)
EPHA4 (human) = EPHA4 (human) (UniProt P54764)
MERTK (human) = MERTK (human) (UniProt Q12866)
PAK2 (human) = PAK2 (human) (UniProt Q13177)
MYLK (human) = MYLK (human) (UniProt Q15746)
FGFR1 (human) = FGFR1 (human) (UniProt P11362)
TSSK1B (human) = TSSK1B (human) (UniProt Q9BXA7)
CAMKK2 (human) = CAMKK2 (human) (UniProt Q96RR4)
HCK (human) = HCK (human) (UniProt P08631)
STK11 (human) = STK11 (human) (UniProt Q15831)
CDK16 (human) = CDK16 (human) (UniProt Q00536)
LCK (human) = LCK (human) (UniProt P06239)
CSF1R (human) = CSF1R (human) (UniProt P07333)
CLK2 (human) = CLK2 (human) (UniProt P49760)
MAP3K7 (human) = MAP3K7 (human) (UniProt O43318)
ERBB4 (human) = ERBB4 (human) (UniProt Q15303)
LIMK2 (human) = LIMK2 (human) (UniProt P53671)
MINK1 (human) = MINK1 (human) (UniProt Q8N4C8)
ALK (human) = ALK (human) (UniProt Q9UM73)
NEK6 (human) = NEK6 (human) (UniProt Q9HC98)
FER (human) = FER (human) (UniProt P16591)
TLK2 (human) = TLK2 (human) (UniProt Q86UE8)
PLK4 (human) = PLK4 (human) (UniProt O00444)
ADCK4 (human) = ADCK4 (human) (UniProt Q96D53)
HIPK1 (human) = HIPK1 (human) (UniProt Q86Z02)
[1] = tested on: FLT3 (human), P36888 [ITD]
PRKACB (human) = PRKACB (human) (UniProt P22694)
CSNK1D (human) = CSNK1D (human) (UniProt P48730)
INSR (human) = INSR (human) (UniProt P06213)
RAF1 (human) = RAF1 (human) (UniProt P04049)
CAMK4 (human) = CAMK4 (human) (UniProt Q16566)
CAMK2D (human) = CAMK2D (human) (UniProt Q13557)
IRAK3 (human) = IRAK3 (human) (UniProt Q9Y616)

CSF1R (human), sequence (P07333 whole entry, looked up): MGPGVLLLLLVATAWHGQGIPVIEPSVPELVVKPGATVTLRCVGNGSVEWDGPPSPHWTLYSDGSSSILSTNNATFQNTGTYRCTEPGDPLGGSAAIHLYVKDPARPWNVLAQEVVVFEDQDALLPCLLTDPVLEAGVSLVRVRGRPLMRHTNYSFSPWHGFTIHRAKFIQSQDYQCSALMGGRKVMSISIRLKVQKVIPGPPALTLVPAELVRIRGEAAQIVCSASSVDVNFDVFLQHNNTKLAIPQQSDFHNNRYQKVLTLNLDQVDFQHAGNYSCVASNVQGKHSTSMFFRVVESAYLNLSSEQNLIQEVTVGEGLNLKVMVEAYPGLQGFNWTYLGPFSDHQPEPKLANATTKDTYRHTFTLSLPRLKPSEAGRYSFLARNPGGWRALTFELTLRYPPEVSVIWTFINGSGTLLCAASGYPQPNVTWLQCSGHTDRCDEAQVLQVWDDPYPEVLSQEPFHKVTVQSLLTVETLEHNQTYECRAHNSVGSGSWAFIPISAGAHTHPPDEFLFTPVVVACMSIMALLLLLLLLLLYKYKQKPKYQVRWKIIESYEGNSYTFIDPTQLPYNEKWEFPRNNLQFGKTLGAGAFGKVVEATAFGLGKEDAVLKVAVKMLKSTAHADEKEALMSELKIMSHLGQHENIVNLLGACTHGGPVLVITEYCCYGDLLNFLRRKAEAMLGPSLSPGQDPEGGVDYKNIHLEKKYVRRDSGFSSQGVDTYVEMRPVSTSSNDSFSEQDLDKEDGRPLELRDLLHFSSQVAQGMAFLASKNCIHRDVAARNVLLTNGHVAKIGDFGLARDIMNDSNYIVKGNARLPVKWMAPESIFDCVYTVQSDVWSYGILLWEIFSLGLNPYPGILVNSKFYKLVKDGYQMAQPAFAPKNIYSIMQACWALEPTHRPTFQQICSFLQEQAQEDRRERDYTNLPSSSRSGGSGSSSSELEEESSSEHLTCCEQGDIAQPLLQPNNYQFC
MAP3K7 (human), sequence (O43318 whole entry, looked up): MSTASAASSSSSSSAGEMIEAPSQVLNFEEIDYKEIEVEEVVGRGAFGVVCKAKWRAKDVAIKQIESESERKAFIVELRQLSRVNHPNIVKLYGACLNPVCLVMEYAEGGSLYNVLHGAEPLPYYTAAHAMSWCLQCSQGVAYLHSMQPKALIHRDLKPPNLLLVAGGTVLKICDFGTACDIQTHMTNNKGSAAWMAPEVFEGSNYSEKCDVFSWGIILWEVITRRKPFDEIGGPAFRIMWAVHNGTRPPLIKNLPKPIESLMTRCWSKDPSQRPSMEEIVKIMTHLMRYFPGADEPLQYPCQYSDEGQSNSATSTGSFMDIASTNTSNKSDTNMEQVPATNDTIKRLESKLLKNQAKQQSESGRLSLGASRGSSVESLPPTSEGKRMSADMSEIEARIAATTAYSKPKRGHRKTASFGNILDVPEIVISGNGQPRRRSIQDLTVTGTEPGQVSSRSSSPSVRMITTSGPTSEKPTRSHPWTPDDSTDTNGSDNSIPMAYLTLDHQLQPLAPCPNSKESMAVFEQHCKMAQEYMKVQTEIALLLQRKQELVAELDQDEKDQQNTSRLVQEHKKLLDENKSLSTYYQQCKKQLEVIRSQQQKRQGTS
FGFR1 (human), sequence (P11362 whole entry, looked up): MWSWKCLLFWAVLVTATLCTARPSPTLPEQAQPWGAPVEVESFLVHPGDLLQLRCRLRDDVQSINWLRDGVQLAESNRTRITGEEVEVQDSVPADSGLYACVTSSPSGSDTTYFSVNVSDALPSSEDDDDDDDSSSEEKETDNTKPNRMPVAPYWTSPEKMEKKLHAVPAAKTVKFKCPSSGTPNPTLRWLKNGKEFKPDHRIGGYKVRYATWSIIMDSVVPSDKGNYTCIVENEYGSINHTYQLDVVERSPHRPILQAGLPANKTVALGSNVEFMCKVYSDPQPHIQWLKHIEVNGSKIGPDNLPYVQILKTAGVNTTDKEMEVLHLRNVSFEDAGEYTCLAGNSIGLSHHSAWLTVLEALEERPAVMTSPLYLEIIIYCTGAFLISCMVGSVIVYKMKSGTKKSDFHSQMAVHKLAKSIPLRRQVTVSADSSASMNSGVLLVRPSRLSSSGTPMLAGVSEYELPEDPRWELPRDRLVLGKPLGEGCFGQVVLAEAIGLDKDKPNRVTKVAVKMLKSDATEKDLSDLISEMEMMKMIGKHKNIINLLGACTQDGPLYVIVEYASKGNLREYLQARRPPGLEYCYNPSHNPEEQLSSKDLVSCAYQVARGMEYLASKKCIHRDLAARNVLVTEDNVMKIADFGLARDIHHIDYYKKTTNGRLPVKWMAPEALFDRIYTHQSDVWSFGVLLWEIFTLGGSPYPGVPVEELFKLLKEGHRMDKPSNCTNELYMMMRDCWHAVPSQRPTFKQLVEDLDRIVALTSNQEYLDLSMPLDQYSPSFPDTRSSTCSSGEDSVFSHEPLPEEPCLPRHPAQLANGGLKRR
CSNK1D (human), sequence (P48730 whole entry, looked up): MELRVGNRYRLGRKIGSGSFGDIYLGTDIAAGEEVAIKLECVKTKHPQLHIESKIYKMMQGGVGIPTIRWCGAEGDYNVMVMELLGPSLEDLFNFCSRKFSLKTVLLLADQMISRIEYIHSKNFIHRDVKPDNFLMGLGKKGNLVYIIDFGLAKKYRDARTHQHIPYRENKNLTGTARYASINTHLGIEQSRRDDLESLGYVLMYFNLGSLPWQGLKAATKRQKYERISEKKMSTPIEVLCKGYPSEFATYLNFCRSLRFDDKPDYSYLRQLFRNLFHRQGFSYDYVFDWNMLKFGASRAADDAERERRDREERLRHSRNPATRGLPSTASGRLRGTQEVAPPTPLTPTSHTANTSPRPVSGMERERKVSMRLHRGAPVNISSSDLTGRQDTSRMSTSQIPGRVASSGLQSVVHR
EPHA4 (human), sequence (P54764 whole entry, looked up): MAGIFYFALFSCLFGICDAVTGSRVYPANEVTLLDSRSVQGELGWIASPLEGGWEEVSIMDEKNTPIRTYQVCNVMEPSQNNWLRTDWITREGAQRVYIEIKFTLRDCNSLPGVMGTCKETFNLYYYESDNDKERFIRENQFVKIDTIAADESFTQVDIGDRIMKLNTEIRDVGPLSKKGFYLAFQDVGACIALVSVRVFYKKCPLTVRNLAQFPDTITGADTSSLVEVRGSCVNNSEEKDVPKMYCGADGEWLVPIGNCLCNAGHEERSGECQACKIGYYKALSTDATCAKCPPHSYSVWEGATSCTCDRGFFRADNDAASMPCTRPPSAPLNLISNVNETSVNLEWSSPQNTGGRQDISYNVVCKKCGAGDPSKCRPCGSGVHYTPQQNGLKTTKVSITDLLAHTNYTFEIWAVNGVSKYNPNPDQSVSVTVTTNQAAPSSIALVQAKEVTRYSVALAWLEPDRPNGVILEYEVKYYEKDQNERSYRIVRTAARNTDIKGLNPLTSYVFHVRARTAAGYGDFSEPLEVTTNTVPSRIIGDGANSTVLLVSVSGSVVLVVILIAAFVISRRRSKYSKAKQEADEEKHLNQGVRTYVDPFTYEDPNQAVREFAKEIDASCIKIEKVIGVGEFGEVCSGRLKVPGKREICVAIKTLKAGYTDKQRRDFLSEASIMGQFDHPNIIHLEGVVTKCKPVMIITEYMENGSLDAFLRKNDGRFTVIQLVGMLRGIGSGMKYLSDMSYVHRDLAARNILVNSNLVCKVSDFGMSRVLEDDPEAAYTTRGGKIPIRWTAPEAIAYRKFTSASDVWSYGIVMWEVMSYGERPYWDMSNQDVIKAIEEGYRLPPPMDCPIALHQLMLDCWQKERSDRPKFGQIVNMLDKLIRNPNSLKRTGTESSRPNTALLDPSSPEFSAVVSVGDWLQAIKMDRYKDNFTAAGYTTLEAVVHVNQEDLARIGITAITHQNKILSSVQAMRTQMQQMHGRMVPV
STK11 (human), sequence (Q15831 whole entry, looked up): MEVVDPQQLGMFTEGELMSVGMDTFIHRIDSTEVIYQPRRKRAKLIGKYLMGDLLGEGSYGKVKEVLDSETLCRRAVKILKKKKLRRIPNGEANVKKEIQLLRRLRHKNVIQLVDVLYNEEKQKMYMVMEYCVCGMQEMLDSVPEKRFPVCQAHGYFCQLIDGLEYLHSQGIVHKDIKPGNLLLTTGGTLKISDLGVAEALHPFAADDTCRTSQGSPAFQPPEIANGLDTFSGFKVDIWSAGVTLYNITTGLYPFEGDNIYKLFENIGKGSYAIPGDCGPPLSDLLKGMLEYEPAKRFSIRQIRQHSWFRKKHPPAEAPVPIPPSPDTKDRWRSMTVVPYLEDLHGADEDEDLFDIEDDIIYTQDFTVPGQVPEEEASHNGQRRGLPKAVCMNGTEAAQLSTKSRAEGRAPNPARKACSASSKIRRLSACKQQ
MAPK14 (human), sequence (Q16539 whole entry, looked up): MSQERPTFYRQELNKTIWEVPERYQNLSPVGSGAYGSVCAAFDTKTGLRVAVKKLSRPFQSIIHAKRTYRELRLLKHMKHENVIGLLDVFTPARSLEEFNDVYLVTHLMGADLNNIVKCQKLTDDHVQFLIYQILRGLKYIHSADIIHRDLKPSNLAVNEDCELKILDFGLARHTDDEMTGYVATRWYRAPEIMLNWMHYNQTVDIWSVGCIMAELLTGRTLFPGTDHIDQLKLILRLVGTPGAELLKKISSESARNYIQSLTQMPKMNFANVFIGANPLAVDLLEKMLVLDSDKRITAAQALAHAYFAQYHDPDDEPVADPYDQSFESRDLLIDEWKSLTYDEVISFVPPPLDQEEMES
PTK6 (human), sequence (Q13882 whole entry, looked up): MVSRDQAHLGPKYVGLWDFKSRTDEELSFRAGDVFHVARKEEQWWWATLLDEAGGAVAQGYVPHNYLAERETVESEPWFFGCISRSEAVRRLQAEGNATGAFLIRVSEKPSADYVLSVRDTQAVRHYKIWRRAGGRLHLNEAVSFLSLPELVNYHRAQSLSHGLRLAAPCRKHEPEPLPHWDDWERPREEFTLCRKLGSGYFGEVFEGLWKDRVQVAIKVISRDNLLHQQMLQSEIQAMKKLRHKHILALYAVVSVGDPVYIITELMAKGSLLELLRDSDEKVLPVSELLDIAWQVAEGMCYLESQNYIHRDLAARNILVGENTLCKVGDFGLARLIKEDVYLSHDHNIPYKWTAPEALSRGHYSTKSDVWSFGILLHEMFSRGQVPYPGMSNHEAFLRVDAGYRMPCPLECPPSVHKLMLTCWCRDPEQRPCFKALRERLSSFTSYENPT

## O=C(NOC[C@H](O)CO)c1ccc(F)c(F)c1Nc1ccc(I)cc1F
MAPK7 (human)
  kinase still bound, per cent of control: 88%
PTK6 (human)
  kinase still bound, per cent of control: 46%
MARK4 (human)
  kinase still bound, per cent of control: 100%
NEK1 (human)
  kinase still bound, per cent of control: 98%
PDGFRA (human)
  kinase still bound, per cent of control: 96%
CIT (human)
  kinase still bound, per cent of control: 100%
MAPK14 (human)
  kinase still bound, per cent of control: 100%
MAP3K9 (human)
  kinase still bound, per cent of control: 95%
CHEK1 (human)
  kinase still bound, per cent of control: 74%
EPHA4 (human)
  kinase still bound, per cent of control: 100%
MERTK (human)
  kinase still bound, per cent of control: 100%
PAK2 (human)
  kinase still bound, per cent of control: 93%
MYLK (human)
  kinase still bound, per cent of control: 96%
FGFR1 (human)
  kinase still bound, per cent of control: 100%
TSSK1B (human)
  kinase still bound, per cent of control: 100%
CAMKK2 (human)
  kinase still bound, per cent of control: 100%
HCK (human)
  kinase still bound, per cent of control: 100%
STK11 (human)
  kinase still bound, per cent of control: 83%
CDK16 (human)
  kinase still bound, per cent of control: 100%
LCK (human)
  kinase still bound, per cent of control: 88%
CSF1R (human)
  kinase still bound, per cent of control: 100% and 80%
CLK2 (human)
  kinase still bound, per cent of control: 96%
MAP3K7 (human)
  kinase still bound, per cent of control: 75%
ERBB4 (human)
  kinase still bound, per cent of control: 100%
LIMK2 (human)
  kinase still bound, per cent of control: 100%
MINK1 (human)
  kinase still bound, per cent of control: 94%
ALK (human)
  kinase still bound, per cent of control: 100%
NEK6 (human)
  kinase still bound, per cent of control: 100%
FER (human)
  kinase still bound, per cent of control: 100%
TLK2 (human)
  kinase still bound, per cent of control: 98%
PLK4 (human)
  kinase still bound, per cent of control: 86%
ADCK4 (human)
  kinase still bound, per cent of control: 100%
HIPK1 (human)
  kinase still bound, per cent of control: 91%
[1]
  kinase still bound, per cent of control: 100%
PRKACB (human)
  kinase still bound, per cent of control: 98%
CSNK1D (human)
  kinase still bound, per cent of control: 100%
INSR (human)
  kinase still bound, per cent of control: 92%
RAF1 (human)
  kinase still bound, per cent of control: 99%
CAMK4 (human)
  kinase still bound, per cent of control: 100%
CAMK2D (human)
  kinase still bound, per cent of control: 100%
IRAK3 (human)
  kinase still bound, per cent of control: 100%

## C=CC(=O)Nc1cccc(Oc2nc(Nc3ccc(N4CCN(C)CC4)cc3OC)ncc2Cl)c1
MAPK7 (human)
  kinase still bound, per cent of control: 4%
PTK6 (human)
  kinase still bound, per cent of control: 100%
MARK4 (human)
  kinase still bound, per cent of control: 16%
NEK1 (human)
  kinase still bound, per cent of control: 100%
PDGFRA (human)
  kinase still bound, per cent of control: 100%
CIT (human)
  kinase still bound, per cent of control: 100%
MAPK14 (human)
  kinase still bound, per cent of control: 100%
MAP3K9 (human)
  kinase still bound, per cent of control: 35%
CHEK1 (human)
  kinase still bound, per cent of control: 7%
EPHA4 (human)
  kinase still bound, per cent of control: 100%
MERTK (human)
  kinase still bound, per cent of control: 100%
PAK2 (human)
  kinase still bound, per cent of control: 100%
MYLK (human)
  kinase still bound, per cent of control: 100%
FGFR1 (human)
  kinase still bound, per cent of control: 10%
TSSK1B (human)
  kinase still bound, per cent of control: 100%
CAMKK2 (human)
  kinase still bound, per cent of control: 10%
HCK (human)
  kinase still bound, per cent of control: 100%
STK11 (human)
  kinase still bound, per cent of control: 100%
CDK16 (human)
  kinase still bound, per cent of control: 100%
LCK (human)
  kinase still bound, per cent of control: 100%
CSF1R (human)
  kinase still bound, per cent of control: 14%
CLK2 (human)
  kinase still bound, per cent of control: 100%
MAP3K7 (human)
  kinase still bound, per cent of control: 100%
ERBB4 (human)
  kinase still bound, per cent of control: 0.25%
LIMK2 (human)
  kinase still bound, per cent of control: 100%
MINK1 (human)
  kinase still bound, per cent of control: 100%
ALK (human)
  kinase still bound, per cent of control: 0.7%
NEK6 (human)
  kinase still bound, per cent of control: 9%
FER (human)
  kinase still bound, per cent of control: 11%
TLK2 (human)
  kinase still bound, per cent of control: 100%
PLK4 (human)
  kinase still bound, per cent of control: 0.2%
ADCK4 (human)
  kinase still bound, per cent of control: 100%
HIPK1 (human)
  kinase still bound, per cent of control: 100%
[1]
  kinase still bound, per cent of control: 0.85%
PRKACB (human)
  kinase still bound, per cent of control: 100%
CSNK1D (human)
  kinase still bound, per cent of control: 100%
INSR (human)
  kinase still bound, per cent of control: 17%
RAF1 (human)
  kinase still bound, per cent of control: 100%
CAMK4 (human)
  kinase still bound, per cent of control: 100%
CAMK2D (human)
  kinase still bound, per cent of control: 100%
IRAK3 (human)
  kinase still bound, per cent of control: 34%
